Measurements published in patent publication US6642392B1 (priority 1997, dated 2003).
Read-outs that look alike come from different tables or passages of the source.

Columns and labels:
Assay type in all cases: in vivo
[1] = test system: Eiysiphe graminis f. sp. tritici; assay: Test A: wheat powdery mildew, preventive spray on wheat seedlings; conditions: for Test A disease control rating (100 = 100% disease control, 0 = no disease control): wheat seedlings sprayed to run-off, inoculated the following day, rating relative to controls, unmarked compounds (standard test rate); for Test A disease control rating: wheat powdery mildew
How it was run: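 Compounds (3% acetone, 250 ppm Trem 014) sprayed to run-off on wheat seedlings, inoculated next day with spore dust. Incubated 7 days at 20° C before disease rating, 0–100% control relative to untreated controls.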

Puccinia recondita = assay: Test B: wheat leaf rust, preventive spray on wheat seedlings; conditions: for Test B disease control rating (100 = 100% disease control, 0 = no disease control): wheat seedlings sprayed to run-off, inoculated the following day, rating relative to controls, unmarked compounds (standard test rate); for Test B disease control rating: wheat leaf rust
How it was run: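 Wheat seedlings were sprayed to run-off with compound (3% acetone, 250 ppm Trem 014), then inoculated with P. recondita spores the next day. They were held 24 h saturated at 20 °C, then 6 days at 20 °C. Ratings are 0–100% disease control versus controls.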

Pyricularia oryzae = conditions: for Test C disease control rating (100 = 100% disease control, 0 = no disease control): rice seedlings sprayed to run-off, inoculated the following day, rating relative to controls, unmarked compounds (standard test rate); for Test C disease control rating: rice blast
Phytophthora infestans = conditions: for Test D disease control rating (100 = 100% disease control, 0 = no disease control): tomato seedlings sprayed to run-off, inoculated the following day, rating relative to controls, unmarked compounds (standard test rate); for Test D disease control rating: tomato late blight
Botrytis cinerea = assay: Test E: gray mold, preventive spray on cucumber seedlings; conditions: for Test E disease control rating (100 = 100% disease control, 0 = no disease control): cucumber seedlings sprayed to run-off, inoculated the following day, rating relative to controls, unmarked compounds (standard test rate); for Test E disease control rating: gray mold on cucumber
How it was run: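 Compounds in 3% acetone were suspended with 250 ppm Trem 014 surfactant and sprayed to run-off on cucumber seedlings. B. cinerea spores were inoculated next day, then 48 h saturated humidity at 20° C and 5 days at 20° C. Disease control rated 0–100% versus controls.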

[2] = 100 = 100% disease control, 0 = no control relative to controls, unmarked entries (standard test concentration)
[3] = 100 = 100% disease control, 0 = no control, unmarked entries (standard test concentration)

| SMILES | Test A disease control rating (100 = 100% disease control, 0 = no disease control) [1] | Test B disease control rating (100 = 100% disease control, 0 = no disease control) (Puccinia recondita) | Test C disease control rating (100 = 100% disease control, 0 = no disease control) (Pyricularia oryzae) | Test D disease control rating (100 = 100% disease control, 0 = no disease control) (Phytophthora infestans) | Test E disease control rating (100 = 100% disease control, 0 = no disease control) (Botrytis cinerea) | Test A disease control rating [1, 2] | Test B disease control rating (Puccinia recondita; [3]) | Test C disease control rating (Pyricularia oryzae; [3]) | Test D disease control rating (Phytophthora infestans; [3]) | Test E disease control rating (Botrytis cinerea; [3]) | other results |
| --- | --- | --- | --- | --- | --- | --- | --- | --- | --- | --- | --- |
| CCC1(C(=O)NC(C)COc2ccc(F)c(Cl)c2)C(C)C1(Cl)Cl (stereo not shown) [compound 232] | 62% | 0% | 100% | 35% | 69% | – | – | – | – | – | – |
| CCC1(C(=O)NC(C)COc2c(F)cccc2C#N)C(C)C1(Cl)Cl (mixture of isomers) [compound 128] | – | – | – | – | – | 86% | 0% | 74% | 13% | 0% | – |
| CC(COc1cc(F)c(F)cc1C#N)NC(=O)C(C#N)C(C)C(C)(C)C (mixture of isomers) [compound 278] | 56% | 67% | 32% | 0% | 94% | – | – | – | – | – | – |
| C[C@H](COc1cc(F)ccc1Cl)NC(=O)C(C#N)C(C)(C)C (single isomer, unassigned) [191b] | – | – | – | – | – | 0% | 0% | 100% | 47% | 55% | – |
| CCC1(C(=O)NC(C)C=Cc2ccc(Cl)cc2Cl)C(C)C1(Cl)Cl (stereo not shown) [compound 266] | 63% | 0% | 91% | 74% | 0% | – | – | – | – | – | – |
| CC(COc1ccccc1OC(F)(F)C(F)F)NC(=O)C(C#N)C(C)(C)C (mixture of isomers) [compound 201] | – | – | – | – | – | 90% | 0% | 53% | 46% | 0% | – |
| CC(COc1c(F)cccc1C#N)NC(=O)C(C#N)C(C)(C)C (mixture of isomers) [compound 203] | – | – | – | – | – | 0% | 28% | 91% | 0% | 0% | – |
| CC(COc1cc(Cl)ccc1C#N)NC(=O)C(C#N)C(C)(C)C (mixture of isomers) [compound 43] | – | – | – | – | – | 0% | 0% | 86% | 66% | 0% | – |
| C=CC(C)(C)C(C#N)C(=O)N[C@H](C)COc1cc(F)ccc1Cl (single isomer, unassigned) [192a] | – | – | – | – | – | 0% | 0% | 100% | 0% | 85% | – |
| CCC1(C(=O)NC(C)COc2cccc(Cl)c2)C(C)C1(Cl)Cl (mixture of isomers) [82a] | – | – | – | – | – | – | – | – | – | – | Test A disease control rating ([1]; tested at 40 ppm): 0%; Test B disease control rating (Puccinia recondita; tested at 40 ppm): 0%; Test C disease control rating (Pyricularia oryzae; tested at 40 ppm): 53%; Test D disease control rating (Phytophthora infestans; tested at 40 ppm): 43%; Test E disease control rating (Botrytis cinerea; tested at 40 ppm): 0% |
| CC(COc1ccc(Br)cc1F)NC(=O)C(C#N)C(C)(C)C (mixture of isomers) [compound 38] | – | – | – | – | – | 0% | 28% | 53% | 0% | 22% | – |
| CC(COc1ccccc1)NC(=O)C1(C)C(C)C1(Cl)Cl (mixture of isomers) [compound 310] | 84% | 25% | 53% | 0% | 18% | – | – | – | – | – | – |
| CC(COc1ccccc1I)NC(=O)C(C#N)C(C)(C)C (mixture of isomers) [11a] | – | – | – | – | – | 77% | 0% | 97% | 0% | 82% | – |
| CCC(C#N)C(=O)N[C@H](C)[C@H](Oc1cc(F)ccc1F)c1ccccc1 (stereo partly shown) [compound 293] | 0% | 0% | 100% | 23% | 0% | – | – | – | – | – | – |
